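Briefly, cells in 96-well plates were exposed to five compound concentrations for 48 h, and endpoints were estimated by linear interpolation. Abbreviation: GI50, concentration required for 50% inhibition of growth. TGI is the concentration that stops growth completely.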
Legend:
Assay in all cases: NCI tumour cell line growth inhibition, 48 h
HCT-15 colon = tested on: HCT-15 colon
IGROV1 ovarian = tested on: IGROV1 ovarian
K-562 leukemia = tested on: K-562 leukemia
SF-539 CNS = tested on: SF-539 CNS
SK-MEL-2 melanoma = tested on: SK-MEL-2 melanoma
U251 CNS = tested on: U251 CNS
UO-31 renal = tested on: UO-31 renal
EKVX NSCLC = tested on: EKVX NSCLC
MCF7 breast = tested on: MCF7 breast
NCI/ADR-RES ovarian = tested on: NCI/ADR-RES ovarian

Row | SMILES | TGI (HCT-15 colon) | TGI (IGROV1 ovarian) | TGI (K-562 leukemia) | TGI (SF-539 CNS) | TGI (SK-MEL-2 melanoma) | TGI (U251 CNS) | TGI (UO-31 renal) | GI50 (EKVX NSCLC) | TGI (EKVX NSCLC) | GI50 (HCT-15 colon) | GI50 (IGROV1 ovarian) | GI50 (K-562 leukemia) | GI50 (MCF7 breast) | TGI (MCF7 breast) | GI50 (SF-539 CNS) | GI50 (SK-MEL-2 melanoma) | GI50 (U251 CNS) | GI50 (UO-31 renal) | TGI (NCI/ADR-RES ovarian) | GI50 (NCI/ADR-RES ovarian)
1 | Cn1c(O)c(C(=O)Nc2cccs2)c(=O)[nH]c1=S | 43 µM | 52 µM | > 100 µM | 30.3 µM | 30.4 µM | 48.3 µM | 34.1 µM | – | – | – | – | – | – | – | – | – | – | – | – | –
2 | N#CC(C#N)=CN1CCN(C(=O)c2ccco2)C1=S | > 100 µM | 38.9 µM | > 100 µM | 7.55 µM | 12.8 µM | > 100 µM | 30.1 µM | 11.9 µM | 71.5 µM | 5.23 µM | 6.61 µM | 6.57 µM | 3.45 µM | 28.4 µM | 2.48 µM | 4.28 µM | 6.54 µM | 10.5 µM | – | –
3 | C=C1C(=O)C([Si](C)(C)C)=C2C=C(C)C3(CC3)C12C (centres undefined) | > 100 µM | > 100 µM | 54.1 µM | – | 61.1 µM | > 100 µM | > 100 µM | – | 42.2 µM | – | – | – | – | 70.4 µM | – | – | – | – | 44.2 µM | –
4 | O=C(NO)c1ccc([N+](=O)[O-])cc1 | > 100 µM | > 100 µM | > 100 µM | > 100 µM | > 100 µM | > 100 µM | > 100 µM | – | > 100 µM | – | – | – | – | – | – | – | – | – | – | –
5 | CC1CC2OC(=O)C3CC(O)CC(=C23)[C@@]12C[C@@H](c1ccoc1)OC2=O (some centres undefined) | > 100 µM | > 100 µM | > 100 µM | > 100 µM | > 100 µM | > 100 µM | > 100 µM | – | > 100 µM | – | – | – | – | – | – | – | – | – | – | –
6 | COc1ccc(/C=C2\OC(=O)C(Cl)=C2c2ccc(OC)cc2)cc1 | > 100 µM | > 100 µM | > 100 µM | > 100 µM | > 100 µM | > 100 µM | > 100 µM | – | > 100 µM | – | – | – | – | – | – | – | – | – | – | –
7 | Nc1ccn(C2CC(O)C(COP(O)(=S)OC3CC(n4ccc(N)nc4=O)OC3CO)O2)c(=O)n1 (centres undefined) | > 100 µM | > 100 µM | – | > 100 µM | > 100 µM | > 100 µM | > 100 µM | – | > 100 µM | – | – | – | – | > 100 µM | – | – | – | – | > 100 µM | –
8 | COc1cc(/C=C\c2ccccn2)cc(OC)c1OC | > 100 µM | > 100 µM | > 100 µM | > 100 µM | – | > 100 µM | > 100 µM | – | > 100 µM | – | – | – | – | – | – | – | – | – | – | –
9 | COc1cc(/C=C/C(=O)c2sc(-n3nc(-c4ccccc4)cc3-c3ccccc3)nc2C)ccc1O | > 100 µM | > 100 µM | > 100 µM | > 100 µM | > 100 µM | > 100 µM | > 100 µM | – | > 100 µM | – | – | – | – | – | – | – | – | – | – | –
10 | CCOC(=O)CSc1ccnc(=O)[nH]1 | > 100 µM | > 100 µM | > 100 µM | > 100 µM | > 100 µM | > 100 µM | > 100 µM | – | > 100 µM | – | – | – | – | – | – | – | – | – | – | –
11 | CN(C(=O)C12C3C4C1C1C2C3C41I)C(C)(C)C (centres undefined) | > 100 µM | > 100 µM | > 100 µM | > 100 µM | > 100 µM | > 100 µM | > 100 µM | – | > 100 µM | – | – | – | – | – | – | – | – | – | – | –
12 | Cc1c(C#N)c2nnn(C)c(=O)n2c1-c1ccccc1 | > 100 µM | – | – | > 100 µM | > 100 µM | > 100 µM | > 100 µM | – | > 100 µM | – | – | – | – | > 100 µM | – | – | – | – | > 100 µM | –
13 | Cc1c2ccncc2cc2c1sc1ccncc12 | 14.4 µM | 39.3 µM | 21.5 µM | 17.6 µM | 17.8 µM | 14.7 µM | 8.04 µM | – | 15.5 µM | – | – | – | – | 3.56 µM | – | – | – | – | – | –
14 | COc1ccc2c(c1)CC[C@@H]1[C@@H]2CC[C@]2(C)C(=O)C3(CCCCC3)C[C@@H]12 | > 100 µM | > 100 µM | > 100 µM | > 100 µM | > 100 µM | > 100 µM | > 100 µM | > 100 µM | > 100 µM | > 100 µM | > 100 µM | > 100 µM | – | – | > 100 µM | > 100 µM | > 100 µM | > 100 µM | > 100 µM | > 100 µM
15 | N#CC1(C#N)C2CCCCC23OC(=N)C1(C#N)C(c1ccco1)O3 (centres undefined) | 22.5 µM | 40.3 µM | > 100 µM | 51.6 µM | 45.3 µM | – | > 100 µM | – | 79.3 µM | – | – | – | – | 54 µM | – | – | – | – | > 100 µM | –
16 | NC(=O)C(Nc1c(Cl)cccc1Cl)c1cc2cc(Br)ccc2nc1Cl (centres undefined) | > 100 µM | > 100 µM | > 100 µM | > 100 µM | > 100 µM | – | > 100 µM | – | > 100 µM | – | – | – | – | > 100 µM | – | – | – | – | > 100 µM | –
17 | Cn1nc(Cc2ccc(Cl)cc2)n(N)c1=O | > 100 µM | > 100 µM | > 100 µM | > 100 µM | – | > 100 µM | > 100 µM | – | – | – | – | – | – | > 100 µM | – | – | – | – | > 100 µM | –
18 | Clc1cccc(Cl)c1C=NC12CC3CC(CC(C3)C1)C2 | > 10 µM | > 10 µM | > 10 µM | > 10 µM | > 10 µM | > 10 µM | – | – | > 10 µM | – | – | – | – | > 10 µM | – | – | – | – | > 10 µM | –
19 | CC(C)OP(=O)(OC(C)C)C(C(C)C)N(C)/C(N)=N\C1=NC(C(F)(F)F)(C(F)(F)F)N=C(C(C(F)(F)F)C(F)(F)F)O1 (centres undefined) | – | 5.77 µM | 5.11 µM | 11.8 µM | > 100 µM | 11.2 µM | 16 µM | – | 16.1 µM | – | – | – | – | 32 µM | – | – | – | – | – | –
20 | CCOC(C[C@H](O)[C@H]1COC(=S)S1)OCC | > 100 µM | > 100 µM | – | > 100 µM | – | > 100 µM | > 100 µM | – | > 100 µM | – | – | – | – | – | – | – | – | – | – | –
21 | O=c1[nH]c(=O)n(C2OC(CO)C(O)C(F)C2O)cc1F (centres undefined) | > 100 µM | – | > 100 µM | > 100 µM | > 100 µM | > 100 µM | > 100 µM | – | – | – | – | – | – | > 100 µM | – | – | – | – | > 100 µM | –
22 | O=C(NC(C(F)(F)F)(C(F)(F)F)P(=O)(c1ccccc1)c1ccccc1)C(C(F)(F)F)C(F)(F)F | 83.3 µM | 57.7 µM | > 100 µM | 52.1 µM | > 100 µM | > 100 µM | – | – | > 100 µM | – | – | – | – | 62.1 µM | – | – | – | – | 47.9 µM | –
